Test results taken from BindingDB's records for doi:10.7270/Q2DZ06SS (Burnham Center For Chemical Genomics, 2011).

Target: T1, BRCA1-associated RING domain protein 1 (Homo sapiens, UniProt Q99728)
T1 sequence (Q99728 whole entry): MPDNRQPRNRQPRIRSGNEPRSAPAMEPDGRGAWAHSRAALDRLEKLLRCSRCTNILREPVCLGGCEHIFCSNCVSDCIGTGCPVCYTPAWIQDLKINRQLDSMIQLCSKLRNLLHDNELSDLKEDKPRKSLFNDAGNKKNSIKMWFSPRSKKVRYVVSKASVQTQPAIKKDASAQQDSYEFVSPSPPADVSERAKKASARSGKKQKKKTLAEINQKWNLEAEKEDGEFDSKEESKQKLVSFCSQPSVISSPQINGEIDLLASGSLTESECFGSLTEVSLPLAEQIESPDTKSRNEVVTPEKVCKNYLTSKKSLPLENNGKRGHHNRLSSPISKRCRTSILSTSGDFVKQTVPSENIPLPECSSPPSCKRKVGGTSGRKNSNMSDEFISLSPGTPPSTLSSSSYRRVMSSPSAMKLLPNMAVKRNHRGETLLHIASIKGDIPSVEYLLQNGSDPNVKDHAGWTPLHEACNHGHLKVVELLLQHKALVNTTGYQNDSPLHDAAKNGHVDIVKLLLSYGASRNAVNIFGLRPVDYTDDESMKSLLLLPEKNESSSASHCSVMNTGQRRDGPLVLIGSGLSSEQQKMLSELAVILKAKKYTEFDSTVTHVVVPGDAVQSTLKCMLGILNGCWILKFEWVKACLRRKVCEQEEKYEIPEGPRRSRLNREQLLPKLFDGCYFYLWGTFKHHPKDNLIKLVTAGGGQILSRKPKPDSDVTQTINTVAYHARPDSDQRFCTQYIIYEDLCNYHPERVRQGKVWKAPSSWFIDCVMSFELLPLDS
Assay: inhibition of Brca1/Bard1 split-luciferase complementation, dose response, counter-screen for Mdm2/MdmX interaction inhibitor project, cell-based, luminescence (AID 504669)

Cc1cc(N=NC(C)c2ccccc2O)nc(-c2ccccc2O)n1 (stereo unspecified)
IC50: 5.35 µM
